From patent JPH07173127A, “ヒドロキサム酸誘導体およびそれを有効成分とするエラスターゼ阻害剤” (Kuraray Co Ltd, priority 1993, dated 1995)

Biological target: T1, human leukocyte-derived elastase [ヒト白血球由来エラスターゼ] (Homo sapiens, UniProt P08246)
T1 construct: ヒト白血球由来エラスターゼはシグマ社; purchased Sigma (USA); host or cells: human leukocytes (natural source, as the printed name says)
T1 sequence (P08246 30-247 limits assumed): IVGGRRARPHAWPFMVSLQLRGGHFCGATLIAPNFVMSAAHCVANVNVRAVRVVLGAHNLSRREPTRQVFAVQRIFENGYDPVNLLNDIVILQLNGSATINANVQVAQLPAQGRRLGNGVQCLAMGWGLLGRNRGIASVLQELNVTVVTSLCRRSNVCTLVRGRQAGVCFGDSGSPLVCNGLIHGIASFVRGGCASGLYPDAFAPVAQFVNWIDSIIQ
Test: エラスターゼ阻害試験 (elastase inhibition test, Test Example 1; fluorogenic substrate)
Format: biochemical
Conditions: 50% inhibitory concentration of elastase activity; substrate methoxysuccinyl-Ala-Ala-Pro-Val-4-methyl-coumaryl-7-amide; 0.2M Tris-HCl buffer containing 1M NaCl, pH 8.5; 35℃, 5 min incubation; fluorescence 370/460 nm

IC50 | Structure (SMILES)
3000 nM | CCOC(=O)C(CCC(C)C)(CCC(C)C)C(=O)NOCc1ccccc1 [実施例1, 2−イソペンチル−5−メチル−2−エトキシカルボニルヘキサノヒドロキサム酸ベンジルエステル]
1000 nM | CCOC(=O)C(CCC(C)C)(CCC(C)C)C(=O)NO [実施例2, 2−イソペンチル−5−メチル−2−エトキシカルボニルヘキサノヒドロキサム酸]
1000 nM | CC(C)CCC(CCC(C)C)C(=O)NO [実施例4, 2−イソペンチル−5−メチルヘキサノヒドロキサム酸]
